Consider one compound from patent US10945980B2, “Treatment for myopia” (The University of Newcastle, priority 2016, dated 2021).

SMILES strings stand for the structures.

Holding throughout (assay type): in vivo, guinea pig (Cavia porcellus)
Experiment [1] has as its system lens-induced myopia in guinea pigs. As to the kind of experiment: Intravitreal L-arginine in lens-induced (−6D) myopia, 3 days. As to conditions: 0.2 mM L-arginine daily intravitreal at 7, 8, 9 days of age, −6D lens 3 days; not significant p=0.169.
The test system is the same in experiment [2]. As to the kind of experiment: L-arginine eye drops in −6D lens-induced myopia. From the text: Guinea pigs (pigmented variety, Cavia porcellus) were bred, housed, and raised as described in Example 1. Lights were on a 12 hr light 12 hr dark cycle. The University of Newcastle Animal Care and ethics Committee approved all procedures.
(§1) Two experimental protocols were employed (see Table 4). In Experiment 1, young guinea pigs wore a −6D lens on one eye from 5-12 days of age. They were randomly divided within each litter into two groups of 10 animals each, and received either a drop of L-Arginine (100 mM, 1.7%) in Saline (pH 7.4) or Saline alone (0.9%, pH 7.4) twice per day in the eye wearing the lens (Table 4). Drops were administered at the beginning of their light cycle and again approximately 6 hrs later in the middle of their day cycle. Lenses were removed during the drop administration which occurred under dim red light or in darkness. A single large drop was bathed on the cornea for 3 min in the lens-wearing eye in hand held animals. A clean lens was then reintroduced onto the eye. In Experiment 2, 14 guinea pigs were given eye drops in the same manner as in Experiment 1, but in both eyes and without any lens-wear, to determine the effect of the eye drops on normal eye growth. Animals received one drop of either 1.7% L-arginine (n=7) or atropine (Minims Atropine Sulphate 1%, Bausch & Lomb, preservative free, n=7) in one eye and saline (0.9%) in the other eye twice per day from 9-16 days of age.
(§2) In Experiment 1, at the end of the lens-wearing period, at 12 days of age just before the morning lights came on, both eyes were cyclopleged (1% Cyclopentolate—to paralyse the focussing muscles of the eye to a resting state) and 1.25 hours later, refractive error (RE) was measured. Animals were then anaesthetised with gaseous anaesthetic (1.5% isoflurane in oxygen) and eye length measures were taken in both eyes with high frequency ultrasound as described in Example 1. Biometry measures were also taken in the same manner before the lens wear period at 5 days of age. [No refractive measures were done at 5 days of age as cycloplegia could have interfered with the drug or lens response]. In Experiment 2, refractive error and eye length using ultrasound were measured in the same manner at 17 days of age, 24 hours after the previous drop was administered.
In Experiment 1, lens-induced myopia was achieved by attaching −6D concave lenses to matching Velcro arcs glued above and below the experimental eye as previously described (Howlett & McFadden, 2009). Lenses were exchanged with a clean lens after drop administration.
(§3) After cycloplegia was induced, refractive error was measured in each eye using an Autorefractor (Nidek AR-20, Japan). The spherical equivalent was calculated as the average of the sphere plus half the cylinder as is normal in clinical practice. All reported refractive errors are the spherical equivalent. Next, ocular length was measured using high frequency ultrasound (20 MHz) as previously described (McFadden et al, 2004). At least 20 traces were recorded for each eye and distances were averaged for at least 10 of these recordings. Peaks from the recordings were selected for the back of the cornea, the crystalline lens, and the vitreous chamber, and the layers at the back of the eye: the retina, choroid, and sclera. Ocular length was defined as the summed measurement from the front of the cornea to the back of the sclera.
(§4) Differences between the two eyes were analysed by a 2-tailed T-tests. The mean of calculated differences between the two eyes is referred to as relative myopia or relative ocular length and the difference in the change in ocular length in the treated compared to the untreated eye as relative growth.

Experiment [3] deals with guinea pig eyes not form deprived. In words: Intravitreal L-arginine in eyes not form deprived (control groups of Example 2). As to conditions: 2.2 mM L-arginine vs vehicle, no FD. From the text:
(§5) Animals were assigned to one of seven treatment groups (Table 1). From seven days of age, five of these groups were form deprived in the right eye for 3 days with a diffuser (two groups wore no diffusers and served as controls for form deprived animals). Six groups of animals were intravitreally injected with either L-arginine or physiological saline once per day, just before lights came on at 10 am. One group wore diffusers, but received no injection as a control. At ten days of age, cycloplegia was induced in all animals and refractive error and ocular components were measured. Two retinas, one a saline control and another that had been injected with the highest dose of L-arginine, were analysed by histochemistry for morphological markers of L-arginine induced toxicity.
To establish the size of the guinea pig vitreous, and thus the molarity of the substrate within the eye, ten vitreous chambers were extracted from ten eyes. The volume of the vitreous was 125 μl. Based on this, three drug doses of L-arginine were employed: low (0.4 mM), medium (2.2 mM) and high (non-toxic: 9.3 mM) (See Table 1). […]
(§6) Cycloplegia was induced as described in Example 1, and refractive error subsequently measured as described in Example 1.
Ocular length and axial components were also determined as described in Example 1. […]

Experiment [4] relates to form deprivation myopia in guinea pigs. In words: Intravitreal L-arginine in form deprivation (FD) myopia, 3 days diffuser wear. Here is the method: Fifty-seven pigmented guinea pigs (Cavia porcellus) were sourced from the University of Newcastle and housed as described in Example 1. Animals were provided with food and water ad libitum and the room temperature was maintained at 22° C. The University of Newcastle under Australian legislative requirements approved all procedures.
Animals wore classical form diffusers made of translucent moulded Perspex (0.8 mm thickness, 24% transmission) on their right eyes. Diffusers were mounted onto plastic washers backed with Velcro® and attached to mating Velcro® arcs which were affixed above and below the eye.
as §5
To establish the size of the guinea pig vitreous, and thus the molarity of the substrate within the eye, ten vitreous chambers were extracted from ten eyes. The volume of the vitreous was 125 μl. Based on this, three drug doses of L-arginine were employed: low (0.4 mM), medium (2.2 mM) and high (non-toxic: 9.3 mM) (See Table 1). A 30 gauge Hamilton syringe was used to slowly inject into the vitreous through the temporal sclera of right eyes, approximately 2 mm posterior to the limbus. All injections were 10 μl of either physiological saline (0.9%) or L-arginine dissolved in saline (pH 7.4 for all injections).
as §6
Ocular length and axial components were also determined as described in Example 1.
The data presented are means±standard errors of the mean. All figures and statistics are based on the difference between the lens-wearing eye and the fellow non lens-wearing eye and are referred to as relative refractive error and relative ocular distances. Statistical comparisons between lens wearing groups were based on one way ANOVAs followed by Holm-Sidak post hoc tests to account for family-wise error. Correlations were based on Pearson's regression analysis. Statistical analysis used Prism®, Graph Pad Software, Inc. V 6.

Experiment [5] concerns normal eye growth in guinea pigs. As to the kind of experiment: Eye drops on normal growth and emmetropization (no lens wear). The note with it: eye drops twice daily 9-16 days of age. The method, then: as §1, §2, §3, §4

Consider `N=C(N)NCCC[C@H](N)C(=O)O` [L-arginine], for which the “interocular difference in refractive error (lens-wearing eye more hyperopic than fellow eye)” value in experiment [1] is 2.00 D. Further, the “animals that did not develop myopia in the lens-wearing eye” value in experiment [2] (1.7% (100 mM) LA eye drops twice daily, −6D lens) is 7/10. Moreover, the “relative eye growth (mean growth in ocular length) across all animals” value in experiment [2] (1.7% LA eye drops twice daily, between 5 and 12 days of age, −6D lens, p=0.01 vs saline) turned out to be 42±17 μm. Moreover, the “relative growth in the 70% of animals which failed to develop myopia” value in experiment [2] (1.7% LA eye drops twice daily, between 5 and 12 days of age, p=0.44) is given as 10±12 μm. In experiment [2] (1.7% LA eye drops twice daily, −6D lens), the “animals protected from developing myopia” value was found to be 70%. The “relative myopia in the 7 animals that did not develop myopia” value in experiment [2] (1.7% LA eye drops twice daily, −6D lens, p=0.000 vs saline) is listed as −2.5±0.7 D. For the same compound, the “relative myopia, mean across all 10 animals” value in experiment [2] (1.7% LA eye drops twice daily, −6D lens, p=0.007 vs saline) is −3.6±0.8 D. The “mean myopia as percent of that in control animals” value in experiment [2] (1.7% LA eye drops, the 70% of animals protected) turned out to be 37%. For the same compound, the “mean refractive error in untreated eyes” value in experiment [2] (untreated fellow eyes of LA group at 12 days of age, 1.7% LA eye drops twice daily in the other eye) was “+5.2±0.5 D”. The “difference in relative refractive error between the two groups that were not form deprived” value in experiment [3] (daily 10 μl intravitreal injection for 3 days, p=0.46) is given as −0.2 D. Moreover, in experiment [3] (intravitreal, p=0.44), the “difference in ocular length between groups not form deprived” value was determined as 83 μm. Also, in experiment [4] (FD 2.2 mM and FD 9.3 mM groups, daily intravitreal injection, 3 days FD), the “relative refractive error compared with animals that had no form deprivation” value is “not significantly different from animals that had no form deprivation”. Also, the “ocular length, shortening relative to FD NIL” value in experiment [4] (FD 9.3 mM (high dose, intravitreal) vs form deprivation only, p<0.001) is given as −484 μm. The “vitreous chamber depth, difference FD 0 mM vs FD 9.3 mM” value in experiment [4] (FD + vehicle vs FD + 9.3 mM L-arginine, did not reach significance, p=0.12) came out at 215 μm. For the same compound, in experiment [4] (FD + vehicle vs FD + 9.3 mM L-arginine, not significant, p=0.14), the “choroid thickness, FD 0 mM thinner than FD 9.3 mM” value is reported as 31 μm. Besides, the “ocular length, FD 0 mM greater than FD 9.3 mM” value in experiment [4] (FD + vehicle vs FD + high dose L-arginine 9.3 mM intravitreal, p<0.001) came to 403 μm. The “vitreous chamber depth, FD NIL longer than FD 9.3 mM” value in experiment [4] (form deprivation only vs FD + 9.3 mM L-arginine intravitreal, p<0.001) amounted to 484 μm. The “choroid thickness, difference FD NIL vs FD 9.3 mM” value in experiment [4] (form deprivation only vs FD + 9.3 mM L-arginine intravitreal, p=0.03) is given as −39 μm. Also, the “ocular length on average” value in experiment [5] (measured at 17 days, p=0.22 between groups) amounted to 8.124 mm. Moreover, in experiment [5] (measured at 17 days, p=0.32 between groups), the “mean refractive error, both eyes averaged” value was “+4.43”. Besides, in experiment [5] (no lens, 1.7% LA (p=0.69) or 1% Atropine (p=0.40)), the “effect on refractive error (drug eye vs saline eye)” value was “did not affect the refractive error of the eye”. For the same compound, in experiment [5] (LA p=0.39, ATR p=0.42), the “difference between the two eyes in ocular length (drug eye vs saline control eye)” value is −33 μm.
